Our source for the logD values is the SangsterLogP compilation.

For one series the following is noted: pH 2.0.
`COc1ccc(NC(=O)[C@H](OC(=O)CNC(=O)c2ccc(C)s2)c2ccccc2)cc1Cl` yielded a logD of 4.54. Still for that read-out and setting: in the case of `COc1ccc(N(CC(=O)N[C@@H]2CCS(=O)(=O)C2)S(=O)(=O)c2ccc(Cl)c(Cl)c2)cc1` it was 3.32. `O=S(=O)(/C=C/C=C/Sc1ccccc1)c1ccccc1` displayed a log distribution coefficient (logD) of 4.03. For `CC(C)N(Cc1nnc(-c2ccc(Cl)cc2)o1)C(=O)[C@@H]1COc2ccccc2O1`, the log distribution coefficient (logD) was found to be 4.09. The same measure, in the same setting: in the case of `COc1ccccc1NC(=S)N[C@H](NC(=O)c1ccccc1C)C(Cl)(Cl)Cl` it was 3.95.

Still in this series, the particulars now being: pH 5.0.
`CCOC(=O)N1CCN(C(=O)c2noc3c2C[C@@H](C(C)(C)C)CC3)CC1` displayed a logD of 4.52.

The compound `C[C@@H]1CCCC[C@H]1NC(=O)COC(=O)C1=COCCO1` returned a logD of 2.48. As for `CCOC(=O)c1ccc(C#N)cc1`, the logD came out at 1.87. The compound `COc1ccc([C@@H]2[C@@H]3CCCC=C3C(C#N)=C(N)C2(C#N)C#N)cc1COCC(F)(F)F` had a logD of 5.5. On the same count and under the same terms, in the case of `CCC[C@@H]1C(=O)C[C@H](C(C)C)C(C#N)(C#N)C1(C#N)C#N` it was 3.3; in that of `CCCN(CCC)S(=O)(=O)c1ccc(C(=O)N2CC[C@@H]3c4ccccc4C(=O)N3C2)cc1`, 4.55. On the same count and under the same terms, then `CCOC(=O)CN1C(=O)[C@@H](OC(=O)c2ccccc2)[C@@H](OC(=O)c2ccccc2)C1=O`, with 5; and `COc1cc2c(cc1OC)[C@@]1(C)N(CC2)C(=O)OC12CCCCC2`, with 3.47; and `O=C(NC[C@@H]1CCCO1)c1sc2ccccc2c1Cl`, with 3.56.

Take `Cc1ccc(-c2nc3n(n2)C(=O)C[C@H](c2cccc([N+](=O)[O-])c2)S3)cc1`: the logD came to 4.49.

In turn, `CCNC(=O)/C(=C/c1cn(-c2ccccc2)nc1-c1cccs1)NC(=O)c1ccccc1` came in with a logD of 4.64. In turn, `CCCCN1C(=O)N(C)[C@@H]2[C@H]1N(C)C(=O)N2CCCC` came in with a log distribution coefficient (logD) of 2.69.

With `CC(=O)c1ccc(NC(=O)CNC(=O)CNC(=O)[C@@H]2O[C@@H]3OC(C)(C)O[C@@H]3[C@H]3OC(C)(C)O[C@H]32)cc1`, the pH-dependent lipophilicity (logD) was determined as 3.39.

In turn, `CCN(CC)S(=O)(=O)N1CCC[C@H](C(=O)NC2CCCCC2)C1` had a logD of 3.58. On the same count and under the same terms, then `COc1ccc([C@@H]2[C@H]3C(=O)N(c4sc5c(c4C#N)CCCC5)C(=O)[C@@H]3ON2c2ccccc2C)cc1`, with 5.83; and `C[C@@H](Oc1ccccc1)C(=O)Nc1ccc(OC(F)(F)F)cc1`, with 4.77. `COc1ccc(C(=O)OCC(=O)c2cc(C)n(C[C@@H]3CCCO3)c2C)c(OC)c1` yielded a logD of 4.18. In turn, `O=C(/C=C/c1ccc2c(c1)OCO2)NCCCCNC(=O)/C=C/c1ccc2c(c1)OCO2` yielded a logD of 4.59. `COC(=O)c1cccc(NC(=O)c2ccc(C)cc2)c1` showed a logD of 3.72. On the same count and under the same terms, in the case of `CCCCOc1ccc(/C=C/C(=O)NC(C)C)cc1` it was 4.45; in that of `CCCN(CCC)S(=O)(=O)c1ccc(C(=O)OCCN2C(=O)C3C4c5ccccc5C(c5ccccc54)C3C2=O)cc1` (configuration not stated), 4.17. Still for that read-out and setting: then `O=C(c1cccc(COCC(F)(F)C(F)F)c1)N1CC[C@@H](C(F)(F)F)n2nccc21`, with 4.27; and `CCCC[C@H](CC)Cn1c(SCC(=O)Nc2ccc(OC)cc2)nc2c1c(=O)n(C)c(=O)n2C`, with 5.51; and `O=C1CC[C@H]2CCCC[C@@]2(O)O1`, with 1.16. The same measure, in the same setting: in the case of `C[C@@H](NC(=O)CN(C1CCCCC1)S(=O)(=O)c1ccccc1)c1ccccc1` it was 4.9.

The same series, now with this note: pH 6.5.
`COc1ccc(N2C(=S)N=C(N[C@@H]([C@@H](Oc3ccc(Cl)cc3)n3cncn3)C(C)(C)C)C2(C)C)cc1` showed a logD of 5.56. Same read-out and setting: then `C[C@@H]1CCCN(c2nc3c(c(=O)n(C)c(=O)n3C)n2CCSc2nc3ccccc3s2)C1`, with 5.05; and `C=CCOc1cccc([C@@H]2c3c(oc4ccccc4c3=O)C(=O)N2c2nnc(C)s2)c1`, with 4.52. Consider `COC(=O)c1cc(N2C(=O)[C@H]3[C@@H](C2=O)[C@]2(C(OC(C)=O)OC(C)=O)C=C[C@H]3O2)ccc1Cl`, for which the logD turned out to be 3.77. Still for that read-out and setting: in the case of `C[C@H]1CCc2nc(NC(=O)c3ccc(F)c(F)c3)sc2C1` it was 4.79; in that of `COc1cc(/C=C(\NC(=O)c2ccccc2)C(=O)Nc2cccc(CO)c2)ccc1OC(C)=O`, 4.04; in that of `Cc1ccc(CN2C(=O)/C(=C/[C@@H]3CC=CCC3)SC2=S)cc1`, 6.26.

Staying with this series, now noted: pH 7.0.
Consider `O=C(/C=C/c1ccccc1)Nc1ccc(N2CCN(C(=O)c3cccs3)CC2)cc1`, for which the logD came to 4.94.

The same series, now with this note: pH 7.3.
`CCCCOC(=O)C1=C(C)NC2=C(C(=O)CCC2)[C@H]1c1ccccc1OC` had a logD of 4.21.

Compound `CCOc1ccc([C@@H]2Oc3nc(SC)nnc3-c3ccccc3N2C(=O)CC)cc1OC` came in with a logD of 3.95. The same measure, in the same setting: then `CCCn1c2ccccc2c2nnc(SCC(=O)N[C@H](C)c3ccccc3)nc21`, with 4.36; and `COc1ccc([C@H]2C[C@@H](c3ccc(-c4ccccc4)cc3)Nc3ncnn32)cc1`, with 5.42.

Staying with this series, now noted: pH 8.0.
`COC(=O)c1c(N[C@@H](NC(C)=O)C(Cl)(Cl)Cl)sc2c1CCCC2` gave a log distribution coefficient (logD) of 5.04.

Consider `OC[C@H]1CCCN(c2ncnc3scc(-c4ccccc4)c23)C1`, for which the logD was found to be 3.9. Still for that read-out and setting: then `COc1ccc([C@@H]2Nc3ccccc3C(=O)N2c2ccccc2)cc1COc1ccc(NC(C)=O)cc1`, with 4.65.

The same series, now with this note: pH 10.0.
Turning to `O=[N+]([O-])c1ccccc1/C=N/c1ccc(/N=C/c2ccccc2[N+](=O)[O-])cc1`, the log distribution coefficient (logD) amounted to 2.95.

The compound `C[C@H]1CN(C(=O)c2cc(-c3ccc4c(c3)OCO4)nc3ccccc23)C[C@H](C)O1` came in with a pH-dependent lipophilicity (logD) of 4.19. Same read-out and setting: in the case of `COc1ccc([C@@H]2C(C(=O)OCCOC(C)C)=C(C)NC3=C2C(=O)C[C@H](c2cccs2)C3)cc1OC` it was 4.45; in that of `CCC[C@@H](C)NC(=O)COc1ncnc2sc3c(c12)CC[C@@H](C)C3`, 4.55. `CCOC(=O)C1=C(N)N2C(=O)[C@H](C)SC2=C(C(=O)OCC)[C@H]1c1ccc(Cl)cc1Cl` returned a logD of 5.49. With `CCOCCOC(=O)C1=C(C)NC2=C(C(=O)CCC2)[C@@H]1c1ccc(C)cc1`, the log distribution coefficient (logD) turned out to be 3.89. In the case of `COc1cc([C@@H]2Nc3cc(C)c(C)cc3NC3=C2C(=O)CC(C)(C)C3)cc(OC)c1OC(C)=O`, the logD stood at 4.21. Compound `CC[C@@H]1CCCCN1C(=O)[C@H]1CC(c2cc(Cl)c(OC)cc2OC)=NO1` returned a logD of 4.55. On the same count and under the same terms, in the case of `Cc1ccc(Cl)c(OCc2ccc(-c3nc4c5c[nH]nc5ncn4n3)o2)c1` it was 4.4.

The compound `CC(C)(C)C(=O)[C@H]1[C@H](c2ccsc2)C(C#N)(C#N)[C@H]2C=Cc3ccccc3N12` returned a logD of 3.37.

The same series, now with this note: pH 10.5.
The compound `CC1(C)CC(=O)C2=C(C1)OC(N)=C(C#N)[C@H]2c1c2ccccc2cc2ccccc12` registered a pH-dependent lipophilicity (logD) of 4.99. `Cc1cc2c(c(=O)o1)[C@@H](c1cccc(F)c1F)C(C#N)=C(N)O2`: the logD came to 3.1.

Consider `Cc1ccc([C@@H](O)C#CC(O)(c2ccccc2)c2ccccc2)o1`, for which the pH-dependent lipophilicity (logD) came to 3.53. Still for that read-out and setting: then `Cc1cc(C)n(CCOC(=O)[C@H]2[C@H](C=C(Cl)Cl)C2(C)C)n1`, with 4.76; and `C[C@H](NC(=O)CSc1ncnc2c1cnn2-c1ccccc1)c1ccccc1`, with 4.73. Turning to `CCOC(=O)C1=C(C)N=c2s/c(=C\c3ccc(OC(C)=O)cc3)c(=O)n2C1c1cccs1` (configuration not stated), the logD came out at 4.77. For the compound `C=CCn1/c(=N/C(=O)c2cc(OC)c(OC)c(OC)c2)sc2cccc(OC)c21`, the logD was 5.14.
